Literature values, collected in patent publication US10806792B2 (Mayne Pharma International Pty Ltd., priority 2012, dated 2020).
Where two headings read alike, the source gives them in different places.

Experiments:
[1] = system: typical infecting organisms for specific superficial and systemic mycoses; conditions: for MIC RANGE: in µg/mL

CCC(C)n1ncn(-c2ccc(N3CCN(c4ccc(OCC5COC(Cn6cncn6)(c6ccc(Cl)cc6Cl)O5)cc4)CC3)cc2)c1=O (stereo not drawn) [itraconazole]
0.03-1: MIC RANGE ([1]; A. terreus complex, Aspergillosis)
0.016-2: MIC RANGE ([1]; C. parapsilosis, Candidiasis)
0.03-8: MIC RANGE ([1]; A. flavus complex, Aspergillosis) | MIC RANGE ([1]; A. nidulans complex, Aspergillosis) | MIC RANGE ([1]; A. niger complex, Aspergillosis) | MIC RANGE ([1]; C. tropicalis, Candidiasis)
0.01-4: MIC RANGE ([1]; Microsporum sp. (audounti, canis, gypseum, ferrugineum et al.), tinea capitis) | MIC RANGE ([1]; Microsporum sp. (canis, et al.), tinea cruris) | MIC RANGE ([1]; Microsporum sp. (canis, et al.), tinea unguium) | MIC RANGE ([1]; Microsporum sp. (canis, gypseum, et al.), tinea corporis) | MIC RANGE ([1]; Microsporum sp. (canis, gypseum, et al.), tinea pedis)
approximately 55%: absolute oral bioavailability (100 mg dose of itraconazole oral solution)
MIC90 = 16: MIC90 ([1]; C. glabrata, Candidiasis)
0.008-8: MIC RANGE ([1]; C. albicans, Candidiasis) | MIC RANGE ([1]; C. kruset, Candidiasis)
50-70%: reduction of Cmax and AUC in the fasting state vs after a light meal (in vivo)
0.01-8: MIC RANGE ([1]; Epidermophyton floccosum, tinea corporis) | MIC RANGE ([1]; Epidermophyton floccosum, tinea cruris) | MIC RANGE ([1]; Epidermophyton floccosum, tinea manuum) | MIC RANGE ([1]; Epidermophyton floccosum, tinea pedis) | MIC RANGE ([1]; Epidermophyton floccosum, tinea unguium) | MIC RANGE ([1]; Trichophyton sp. (rubrum, interdigitale, mentagrophytes.), tinea manuum) | MIC RANGE ([1]; Trichophyton sp. (rubrum, tonsurans interdigitale, mentagrophytes, concentricim, violaceum et al.), tinea corporis) | MIC RANGE ([1]; Trichophyton sp. (rubrum, tonsurans interdigitale, mentagrophytes, et al.), tinea cruris) | MIC RANGE ([1]; Trichophyton sp. (rubrum, tonsurans interdigitale, mentagrophytes, et al.), tinea pedis) | MIC RANGE ([1]; Trichophyton sp. (rubrum, tonsurans interdigitale, mentagrophytes, et al.), tinea unguium) | MIC RANGE ([1]; Trichophyton sp. (tonsurans violaceum, soudanese, schoenleinii, mentagrophytes, verrucossum, et al.), tinea capitis)
